As to `COc1c(Cl)cc(F)cc1C=O`, the melting point – broadly, the temperature of the solid-liquid transition – was in the range of 59 to 62 °C.
As for `Cn1nnc(-c2cccc([N+](=O)[O-])c2)n1`, the figure is 105 °C; as for `O=C(O)c1cc2cc(Cl)c(Cl)cc2nc1N[C@H](Cc1c[nH]c2ccccc12)C(=O)O`, more than 250 °C; as for `COc1c(N(C)S(=O)(=O)c2ccc(C)cc2)ccccc1=O`, 94.5 °C.
`O=C1c2ccccc2C(=O)N1Cc1ccccc1-c1noc2ccccc12` displayed a melting point of 142 °C.
The compound `CCc1[nH]n(C2CCCC2)c2nc(-c3ccccc3C(F)(F)F)nc(=O)c1-2` gave a melting point of 201 to 202 °C.
The value for `CCOC(=O)c1cc2c(s1)CCC2=O` was 54 to 55 °C.
The value for `CCC(=O)c1ccc(-c2ccccc2)cc1` was 98 to 99 °C; that for `CC(=O)N(C)CCc1ccc(C(=O)O)cc1` was 149 to 151 °C; that for `CCCCNc1cc(Cl)nnc1NN` was 170 to 172 °C.
The value for `CCCCCCC(C(C)O)n1c(C)nc(C(N)=O)c1N` (stereo not drawn) was 142 to 144 °C.
For the compound `CCCN(c1nc(-c2ccc(OC)cc2Cl)c(C)s1)c1cc(C(C)=O)ccc1OC`, the melting point was 50 °C.
For `NC(=O)COc1cccc(CCNS(=O)(=O)c2cccc(C(F)(F)F)c2)c1`, the melting point came to 118 °C.
In turn, `CCOC(=O)c1c(-c2cccc([N+](=O)[O-])c2)cc(-c2ccccc2)nc1CBr` returned a melting point of 125 to 128 °C.
For `NNc1nccc(-c2cccc(C(F)(F)F)c2)n1`, the melting point lay in the range of 103 to 106 °C.
The value for `N#Cc1cccc2c1CCC2=O` was 122 °C; that for `COC(=O)c1ccc(Sc2ccccc2)cc1Sc1ccccc1` was 124 °C; that for `COc1ccc(C(=O)c2cccc(C(F)(F)F)c2)cc1` was 62.5 to 63.5 °C.
As for `CC(C)CCCC(C)C1CCC2C3=CC=C4CC(O)C=CC4(C)C3CCC21C` (stereo not drawn), the figure is 126 to 127 °C; as for `Cc1ccc(CS(=O)c2nc3cc4c(cc3[nH]2)OC(F)(F)O4)nc1` (stereo not drawn), 206 to 208 °C.
Consider `O=C1O[C@@H](Cn2ccnn2)CN1c1ccc(-c2ccc(CN3CCOCC3)nc2)c(F)c1`, for which the melting point is 175 °C.
As for `O=C1CCc2c([nH]c3ccc(Cl)cc23)C1`, the figure is 194 to 196 °C; as for `CCCOc1ccccc1C(=O)Nc1cccnc1C(N)=O`, 116 to 118 °C.
On to `CCOC(=O)C(C#N)=C(c1ccc(F)cc1)c1ccc(F)cc1`, for which the melting point lay within 114 to 116 °C.
The value for `COc1cc(-c2nc3ccc(OCCCN4CCCCC4)cc3n2Cc2ccccc2)cc(OC)c1OC` was 92 °C; that for `c1ccc(Cn2c(NC3=NCCN3)nc3ccccc32)cc1` was 165 to 166 °C.
Turning to `O=C1Nc2cc(F)c(F)cc2N2CCN(C(=O)OCc3ccccc3)CC12` (stereo not drawn), the melting point was in the range of 226 to 228 °C.
As for `COc1ccc(CC(NC(=O)OCc2ccccc2)C(=O)C=[N+]=[N-])cc1` (stereo not drawn), the figure is 88 to 90 °C.
As for `CNC(=O)N1C(=O)C(=O)c2cc(F)ccc21`, the figure is 230 to 232 °C.
`N#CCSc1cc(F)cc(F)c1N` yielded a melting point of 66 to 67 °C.
As for `C[C@]1(N2C(=O)c3ccc(CNC(=O)c4ccc(Br)cn4)cc3C2=O)CCC(=O)NC1=O`, the figure is 260 to 262 °C; as for `CCCCC(c1ccc2[nH]c(=O)c(-c3ccccc3)nc2c1)n1ccnc1` (stereo not drawn), 192 °C; as for `Cc1ccc(C(=O)CCl)cc1S(N)(=O)=O`, 166 °C.
The value for `CCCCCC(O)CNCCCCCCNCC(O)CCCCC` (stereo not drawn) was 131 to 134 °C; that for `CN1CCN(C(=O)[C@H](CCC(N)=O)NC(=O)CCc2ccc(OCc3ccccc3)cc2OCc2ccccc2)CC1` was 120 to 122 °C; that for `NS(=O)(=O)c1cccc(C(=O)CCl)c1` was 118 °C.
The value for `NC(CNCC(N)=NO)=NO` was 135 to 136 °C; that for `Cc1cc(C2=NOC(c3cc(Cl)cc(Cl)c3)(C(F)(F)F)C2)ccc1C(=O)NC(N)=O` (stereo not drawn) was 201 to 205 °C.
